Source: patent publication US4599325A, “Substituted tyrosyl alanine dipeptide amides” (G. D. Searle & Co., priority 1985, dated 1986)
Structures can show the parent of a compound that is named as a salt.

Target: T1, delta opiate receptor (Rattus norvegicus, UniProt P33533)
T1 construct: The receptor membrane homogenate was prepared using rat brain; from tissue; host or cells: rat brain membrane homogenate
Assay: Delta opiate receptor binding (3H-(D)-Ala2-(D)-Leu5 enkephalin)
Settings: Table 2; 3H-(D)-Ala2-(D)-Leu5 enkephalin 0.2 nM, rat brain
Procedure: Several subtypes of opiate receptors have been identified. These multiple receptors are thought to mediate the different effects of opiates, e.g., mu receptors are believed to mediate the analgesic activity of opiates. Therefore, the relative affinities of the test compounds for the mu and the delta opiate receptors was determined. The receptor membrane homogenate was prepared using rat brain as previously described in this document. The binding assays for the mu and delta receptors were performed using a modification of the method described by Chang and Cuatrecasas. K.-J. Chang and P. Cuatrecasas. Multiple Opiate receptors: enkephalins and morphine bind to receptors of different specificity, J. Biol. Chem. 254, 2610-2618 (1979). The incubation mixtures contained 0.75 ml of homogenate (1 mg protein/ml) and 0.05 ml of ^3 H-Dihydromorphine (final concentration of 0.2 nM) or 0.05 ml ^3 H-(D)-Ala^2 -(D)-Leu^5 enkephalin (final concentration of 0.2 nM). Both the displacer, naloxone, and the test compounds were added in 0.1 ml volumes. Finally, […] tris-HCl buffer (pH 7.4 at 25° C.) was added to bring the total volume up to 1 ml. The mixture were then incubated 60 minutes at 25° C. before filtering.
The IC50 values, i.e., the concentration of the test compound that inhibited ligand specific binding to its receptor by 50%, were calculated using log-probit analysis, D. J. Finney. […]

T1 sequence (P33533 whole entry): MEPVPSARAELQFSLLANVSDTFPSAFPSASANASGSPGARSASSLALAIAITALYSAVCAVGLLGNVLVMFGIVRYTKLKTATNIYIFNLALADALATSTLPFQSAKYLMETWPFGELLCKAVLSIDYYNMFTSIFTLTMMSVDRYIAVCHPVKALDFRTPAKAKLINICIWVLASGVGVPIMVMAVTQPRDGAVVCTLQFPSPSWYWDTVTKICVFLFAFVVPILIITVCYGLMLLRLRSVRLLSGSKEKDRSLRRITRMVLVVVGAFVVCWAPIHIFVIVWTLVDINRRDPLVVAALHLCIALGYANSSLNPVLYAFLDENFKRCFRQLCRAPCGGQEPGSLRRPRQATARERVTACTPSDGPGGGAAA

Row | Compound | IC50 [nM]
1 | Cc1cc(O)cc(C)c1C[C@H](N)C(=O)N[C@H](C)C(=O)NCCCc1ccccc1 [Example 5, 2,6-dimethyltyrosyl-N-(3-phenylpropyl)-D-alaninamide, hydrochloride] | 1.2
2 | tyrosine-D-alanine-phenylpropylamide [Prior Art, reference compound] | 62
